Common to all, as to test: Glasshouse assay for herbicidal activity (pre- and post-emergence), percentage phytotoxicity
Assay type in all cases: in vivo

For assay [1], the system named is Lolium perenne (LOLPE). The note with it: Lolium perenne. Put shortly: (§1)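 Herbicide was applied to potted plants sown in standard soil, one day after sowing for PRE and after about 12 days for POST. Visual percentage damage ratings followed at 15 DAA (POST) and 20 DAA (PRE).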
Assay [2] relates to Avena fatua (AVEFA). The note with it: Avena fatua. The essentials:
as §1

Assay [3] relates to Echinochloa crus-galli (ECHCG). As to conditions: Echinochloa crus-galli. The essentials: as §1
Assay [4] has as its system Alopecurus myosuroides (ALOMY). The note with it: Alopecurus myosuroides. The essentials: as §1
The mark [5] stands for this setting: post-emergence, 360 h, Rate 250 g/ha, post-emergence, assessed visually 15 DAA, 100%=total damage, 0%=no damage, read-out: Post-emergence herbicidal activity (percentage phytotoxicity) LOLPE POST.
Where [6] appears, read: pre-emergence, 480 h, Rate 250 g/ha, pre-emergence, assessed visually 20 DAA, 100%=total damage, 0%=no damage, read-out: Pre-emergence herbicidal activity (percentage phytotoxicity) LOLPE PRE.
Where [7] appears, read: post-emergence, 360 h, Rate 250 g/ha, post-emergence, assessed visually 15 DAA, 100%=total damage, 0%=no damage, read-out: Post-emergence herbicidal activity (percentage phytotoxicity) AVEFA POST.
The mark [8] stands for this setting: pre-emergence, 480 h, Rate 250 g/ha, pre-emergence, assessed visually 20 DAA, 100%=total damage, 0%=no damage, read-out: Pre-emergence herbicidal activity (percentage phytotoxicity) AVEFA PRE.
Where [9] appears, read: post-emergence, 360 h, Rate 250 g/ha, post-emergence, assessed visually 15 DAA, 100%=total damage, 0%=no damage, read-out: Post-emergence herbicidal activity (percentage phytotoxicity) ECHCG POST.
Setting [10] is: pre-emergence, 480 h, Rate 250 g/ha, pre-emergence, assessed visually 20 DAA, 100%=total damage, 0%=no damage, read-out: Pre-emergence herbicidal activity (percentage phytotoxicity) ECHCG PRE.
[11] abbreviates: post-emergence, 360 h, Rate 250 g/ha, post-emergence, assessed visually 15 DAA, 100%=total damage, 0%=no damage, read-out: Post-emergence herbicidal activity (percentage phytotoxicity) ALOMY POST.
Setting [12] is: pre-emergence, 480 h, Rate 250 g/ha, pre-emergence, assessed visually 20 DAA, 100%=total damage, 0%=no damage, read-out: Pre-emergence herbicidal activity (percentage phytotoxicity) ALOMY PRE.
The mark [13] stands for this setting: post-emergence, 360 h, 250 g/ha, post-emergence, 15 DAA, visual assessment (100%=total damage, 0%=no damage), read-out: Post-emergence herbicidal activity (percentage phytotoxicity) LOLPE POST.
Setting [14] is: pre-emergence, 480 h, 250 g/ha, pre-emergence, 20 DAA, visual assessment (100%=total damage, 0%=no damage), read-out: Pre-emergence herbicidal activity (percentage phytotoxicity) LOLPE PRE.
[15] abbreviates: post-emergence, 360 h, 250 g/ha, post-emergence, 15 DAA, visual assessment (100%=total damage, 0%=no damage), read-out: Post-emergence herbicidal activity (percentage phytotoxicity) AVEFA POST.
Where [16] appears, read: pre-emergence, 480 h, 250 g/ha, pre-emergence, 20 DAA, visual assessment (100%=total damage, 0%=no damage), read-out: Pre-emergence herbicidal activity (percentage phytotoxicity) AVEFA PRE.
Setting [17] is: post-emergence, 360 h, 250 g/ha, post-emergence, 15 DAA, visual assessment (100%=total damage, 0%=no damage), read-out: Post-emergence herbicidal activity (percentage phytotoxicity) ECHCG POST.
[18] abbreviates: pre-emergence, 480 h, 250 g/ha, pre-emergence, 20 DAA, visual assessment (100%=total damage, 0%=no damage), read-out: Pre-emergence herbicidal activity (percentage phytotoxicity) ECHCG PRE.
Setting [19] is: post-emergence, 360 h, 250 g/ha, post-emergence, 15 DAA, visual assessment (100%=total damage, 0%=no damage), read-out: Post-emergence herbicidal activity (percentage phytotoxicity) ALOMY POST.
[20] abbreviates: pre-emergence, 480 h, 250 g/ha, pre-emergence, 20 DAA, visual assessment (100%=total damage, 0%=no damage), read-out: Pre-emergence herbicidal activity (percentage phytotoxicity) ALOMY PRE.

Structures are written as SMILES. Like-named read-outs stand apart in the source and are kept apart here.

As for `Cc1cc(-c2ncc(F)cn2)cc(C)c1C1C(=O)CC(CC(=O)NCc2ncccc2Cl)C1=O` (stereo not drawn) [Compound A140], the pest or weed control at 250 g/ha in assay [1] (setting [5]) turned out to be 90%; in assay [1] (setting [6]) it was 100%; in assay [2] (setting [7]) it was 100%; in assay [2] (setting [8]), 100%; in assay [3] (setting [9]), 100%; in assay [3] (setting [10]), 100%. In addition, the pest or weed control at 250 g/ha in assay [4] (setting [11]) stood at 100%; in assay [4] (setting [12]), 90%.

Take `Cc1cc(C)c(C2C(=O)CC(CC(=O)NCc3cccc([N+](=O)[O-])c3)C2=O)c(C)c1` (stereo not drawn) [Compound B20]: the pest or weed control at 250 g/ha in assay [1] (setting [13]) was 40%; in assay [1] (setting [14]), 70%; in assay [2] (setting [15]), 80%; in assay [2] (setting [16]), 90%; in assay [3] (setting [17]), 90%; in assay [3] (setting [18]) it was 90%. For the same compound, the pest or weed control at 250 g/ha in assay [4] (setting [19]) stood at 70%; in assay [4] (setting [20]) it was 80%.

Consider `Cc1cc(-c2ncc(Cl)cc2F)cc(C)c1C1C(=O)CC(CC(=O)NC/C=C/Cl)C1=O` (stereo not drawn) [Compound B162], for which the pest or weed control at 250 g/ha came out at 100% in assay [1] (setting [13]); 100% in assay [1] (setting [14]); 100% in assay [2] (setting [15]); 90% in assay [2] (setting [16]); 100% in assay [3] (setting [17]); 100% in assay [3] (setting [18]). For the same compound, the pest or weed control at 250 g/ha in assay [4] (setting [19]) and in assay [4] (setting [20]) was 100% in each case.

Regarding `CC#Cc1cc(C)c(C2C(=O)CC(CC(=O)NCCCOC)C2=O)c(C)c1` (stereo not drawn) [Compound B156], the pest or weed control at 250 g/ha in assay [1] (setting [13]), in assay [1] (setting [14]), in assay [2] (setting [15]), in assay [2] (setting [16]), in assay [3] (setting [17]) and in assay [3] (setting [18]) was 100% each time. For the same compound, the pest or weed control at 250 g/ha in assay [4] (setting [19]) and in assay [4] (setting [20]) was 100% each time.

For the compound `C#CCNC(=O)CC1CC(=O)C(c2c(C)cc(/C=C/C)cc2C)C1=O` (stereo not drawn) [Compound B174], the pest or weed control at 250 g/ha in assay [1] (post-emergence, 360 h, POST-emergence, rate 250 g/ha, visual score 15 DAA (100%=total damage, 0%=no damage), read-out: Post-emergence herbicidal activity (percentage phytotoxicity) LOLPE POST) was found to be 90%; in assay [1] (pre-emergence, 480 h, PRE-emergence, rate 250 g/ha, visual score 20 DAA (100%=total damage, 0%=no damage), read-out: Pre-emergence herbicidal activity (percentage phytotoxicity) LOLPE PRE), 100%; in assay [2] (post-emergence, 360 h, POST-emergence, rate 250 g/ha, visual score 15 DAA (100%=total damage, 0%=no damage), read-out: Post-emergence herbicidal activity (percentage phytotoxicity) AVEFA POST) it was 90%; in assay [2] (pre-emergence, 480 h, PRE-emergence, rate 250 g/ha, visual score 20 DAA (100%=total damage, 0%=no damage), read-out: Pre-emergence herbicidal activity (percentage phytotoxicity) AVEFA PRE) it was 70%; in assay [3] (post-emergence, 360 h, POST-emergence, rate 250 g/ha, visual score 15 DAA (100%=total damage, 0%=no damage), read-out: Post-emergence herbicidal activity (percentage phytotoxicity) ECHCG POST) it was 100%; in assay [3] (pre-emergence, 480 h, PRE-emergence, rate 250 g/ha, visual score 20 DAA (100%=total damage, 0%=no damage), read-out: Pre-emergence herbicidal activity (percentage phytotoxicity) ECHCG PRE), 90%. The pest or weed control at 250 g/ha in assay [4] (post-emergence, 360 h, POST-emergence, rate 250 g/ha, visual score 15 DAA (100%=total damage, 0%=no damage), read-out: Post-emergence herbicidal activity (percentage phytotoxicity) ALOMY POST) stood at 100%; in assay [4] (pre-emergence, 480 h, PRE-emergence, rate 250 g/ha, visual score 20 DAA (100%=total damage, 0%=no damage), read-out: Pre-emergence herbicidal activity (percentage phytotoxicity) ALOMY PRE), 100%.

In the case of `C#CCCNC(=O)CC1CC(=O)C(c2c(C)cc(C)cc2C)C1=O` (stereo not drawn) [Compound B37], the pest or weed control at 250 g/ha is 80% in assay [1] (setting [13]); 100% in assay [1] (setting [14]); 100% in assay [2] (setting [15]); 90% in assay [2] (setting [16]); 90% in assay [3] (setting [17]); 90% in assay [3] (setting [18]). In addition, the pest or weed control at 250 g/ha in assay [4] (setting [19]) and in assay [4] (setting [20]) was 70% throughout.

As to `Cc1cc(-c2ncc(Cl)cn2)cc(C)c1C1C(=O)CC(CC(=O)NC(C)C)C1=O` (stereo not drawn) [Compound B340], the pest or weed control at 250 g/ha came to 100% in assay [1] (post-emergence, 360 h, Rate 250 g/ha, post-emergence, visual assessment 15 DAA, 100%=total damage, 0%=no damage, read-out: Post-emergence herbicidal activity (percentage phytotoxicity) LOLPE POST); 100% in assay [1] (pre-emergence, 480 h, Rate 250 g/ha, pre-emergence, visual assessment 20 DAA, 100%=total damage, 0%=no damage, read-out: Pre-emergence herbicidal activity (percentage phytotoxicity) LOLPE PRE); 100% in assay [2] (post-emergence, 360 h, Rate 250 g/ha, post-emergence, visual assessment 15 DAA, 100%=total damage, 0%=no damage, read-out: Post-emergence herbicidal activity (percentage phytotoxicity) AVEFA POST); 100% in assay [2] (pre-emergence, 480 h, Rate 250 g/ha, pre-emergence, visual assessment 20 DAA, 100%=total damage, 0%=no damage, read-out: Pre-emergence herbicidal activity (percentage phytotoxicity) AVEFA PRE); 100% in assay [3] (post-emergence, 360 h, Rate 250 g/ha, post-emergence, visual assessment 15 DAA, 100%=total damage, 0%=no damage, read-out: Post-emergence herbicidal activity (percentage phytotoxicity) ECHCG POST); 100% in assay [3] (pre-emergence, 480 h, Rate 250 g/ha, pre-emergence, visual assessment 20 DAA, 100%=total damage, 0%=no damage, read-out: Pre-emergence herbicidal activity (percentage phytotoxicity) ECHCG PRE). Besides, the pest or weed control at 250 g/ha in assay [4] (post-emergence, 360 h, Rate 250 g/ha, post-emergence, visual assessment 15 DAA, 100%=total damage, 0%=no damage, read-out: Post-emergence herbicidal activity (percentage phytotoxicity) ALOMY POST) was 100%; in assay [4] (pre-emergence, 480 h, Rate 250 g/ha, pre-emergence, visual assessment 20 DAA, 100%=total damage, 0%=no damage, read-out: Pre-emergence herbicidal activity (percentage phytotoxicity) ALOMY PRE) it was 100%.

As for `Cc1cc(C)c(C2C(=O)CC(C(C)C(=O)NCc3ncccc3Cl)C2=O)c(C)c1` (stereo not drawn) [Compound A167], the pest or weed control at 250 g/ha was found to be 60% in assay [1] (setting [5]); 80% in assay [1] (setting [6]); 70% in assay [2] (setting [7]); 10% in assay [2] (setting [8]); 80% in assay [3] (setting [9]); 80% in assay [3] (setting [10]). For the same compound, the pest or weed control at 250 g/ha in assay [4] (setting [11]) and in assay [4] (setting [12]) was 20% in each case.

Regarding `COCCNC(=O)CC1CC(=O)C(c2c(C)cc(-c3ncc(F)cn3)cc2C)C1=O` (stereo not drawn) [Compound A87], the pest or weed control at 250 g/ha worked out at 80% in assay [1] (setting [5]); 80% in assay [1] (setting [6]); 100% in assay [2] (setting [7]); 90% in assay [2] (setting [8]); 100% in assay [3] (setting [9]); 90% in assay [3] (setting [10]). Also, the results for the pest or weed control at 250 g/ha in assay [4] (setting [11]) and in assay [4] (setting [12]) were 100% and 80%, respectively.

The values above are taken from US10206394B2, “Herbicidal compounds” (Syngenta Participations AG, priority 2014, dated 2019).
